The values below come from patent US12624024B2, “EP2 antagonist compounds” (Reservoir Neuroscience, Inc., priority 2021, dated 2026).

Structures are written as SMILES.

Usually IC50 stands for the midpoint of a concentration-inhibition curve.

The assay deals with T1, EP2 receptor (Homo sapiens, UniProt P43116).
T1 construct: expressed in transfected cells; host or cells: CHO-K1 cells (ATCC), transient transfection with FuGENE 6
T1 sequence (P43116 whole entry): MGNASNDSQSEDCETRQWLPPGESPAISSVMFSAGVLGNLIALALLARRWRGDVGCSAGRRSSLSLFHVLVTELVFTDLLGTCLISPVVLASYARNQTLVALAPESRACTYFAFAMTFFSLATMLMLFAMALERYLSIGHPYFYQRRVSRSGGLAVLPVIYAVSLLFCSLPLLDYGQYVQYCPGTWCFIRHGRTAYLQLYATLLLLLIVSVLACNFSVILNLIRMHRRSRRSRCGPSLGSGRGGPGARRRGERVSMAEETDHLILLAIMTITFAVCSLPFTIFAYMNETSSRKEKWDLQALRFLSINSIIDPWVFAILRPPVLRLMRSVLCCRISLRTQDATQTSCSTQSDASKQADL
In words: EP2 Potency Assay (cAMP TR-FRET, CHO-K1 cells transfected with EP2 receptor, PGE2 at EC80). The settings on record: CHO-K1 cells expressing EP2, prostaglandin E2 at EC80, read-out: EP2 Potency (IC50 category). The format is cell-based. The procedure: Compound potency was measured using a cAMP TR-FRET assay.
After 6 hours incubation, the cell media was replaced with F12 medium supplemented with 10% FBS and 100 U/ml Pen-Strep. 24 hours after transfection, cells were harvested and seeded at a density of 3000 cells/well in a 384 well plate to perform the cAMP assay, using the LANCE Ultra cAMP assay kit (PerkinElmer).
Plates were then centrifuged at 1000 rpm for 1 min, agitated at 600 rpm at R.T. for 2 min, and incubated at 25° C. for 5 min. The reference agonist, prostaglandin E2 (MCE), was added to each well at the appropriate concentration to reach its EC80 value. Plates were then centrifuged at 1000 rpm for 1 min, agitated at 600 rpm at R.T. for 2 min, and incubated at 25° C. for 30 min.
A dose-response curve was prepared by plotting percent inhibition for each compound concentration, and then IC50 was calculated by fitting a curve to the plotted values and extrapolating the IC50 concentration.
A general note: TR-FRET usually uses a lanthanide donor and a delayed reading to cut background.
With `Fc1ccc2c(ccn2-c2cc(Cl)c3c(c2)CN(Cc2cscn2)CCO3)c1` [Compound 100, 9-chloro-7-(5-fluoroindol-1-yl)-4-(1,3-thiazol-4-ylmethyl)-3,5-dihydro-2H-1,4-benzoxazepine], the IC50 is above 5000 nM.
The same measure for `COc1ncc(CN2CCOc3c(Cl)cc(-n4ccc5cc(Cl)ccc54)cc3C2)cn1` [Compound 20]: 500 to 1000 nM; for `Nc1ccc(CN2CCOc3c(Cl)cc(-n4ccc5cc(F)ccc54)cc3C2)nn1` [Compound 167]: 1000 to 5000 nM.
On to `CN(C)C(=O)[C@H]1CC[C@@H](CN2CCOc3c(Cl)cc(-n4ccc5cc(F)ccc54)cc3C2)CC1` [Compound 129], for which the IC50 is 1000 to 5000 nM.
In the case of `COC(=O)[C@H]1CC[C@@H](CN2CCOc3c(Cl)cc(-n4ccc5cc(F)ccc54)cc3C2)CC1` [Compound 134] it was above 5000 nM; in that of `Fc1ccc2c(ccn2-c2cc(Cl)c3c(c2)CN(Cc2cnc(Cl)cn2)CCO3)c1` [Compound 173], 1000 to 5000 nM.
In the case of `COc1ncc(CN2CCOc3c(Cl)cc(-n4ccc5cc(N(C)C)ccc54)cc3C2)cn1` [Compound 18] it was above 5000 nM; in that of `COc1ncc(CN2CCOc3c(Cl)cc(-n4ccc5cc(SC)ccc54)cc3C2)cn1` [Compound 21], above 5000 nM.
For `CC1c2cc(-n3ccc4cc(F)ccc43)cc(Cl)c2OCCN1Cc1cc[nH]c(=O)c1` (stereo not drawn) [Compound 235], the IC50 lay in the range of 500 to 1000 nM.
The same measure for `O=c1ncc(CN2CCOc3c(Cl)cc(-n4ccc5cc(F)ccc54)cc3C2)c(F)[nH]1` [Compound 155, 5-{[9-chloro-7-(5-fluoroindol-1-yl)-3,5-dihydro-2H-1,4-benzoxazepin-4-yl]methyl}-4-fluoro-3H-pyrimidin-2-one]: 1000 to 5000 nM; for `COc1ccc2c(ccn2-c2cc(Cl)c3c(c2)CN(Cc2cnc(OC)nc2)CCO3)c1` [Compound 19]: above 5000 nM; for `COc1ncc(CN2CCOc3c(Cl)cc(-n4ccc5cc(C#N)ccc54)cc3C2)cn1` [Compound 16]: 500 to 1000 nM.
As to `COc1ncc(CN2CCOc3c(Cl)cc(-n4ccc5c4CCCC5)cc3C2)cn1` [Compound 44, 9-chloro-4-[(2-methoxypyrimidin-5-yl)methyl]-7-(4,5,6,7-tetrahydroindol-1-yl)-3,5-dihydro-2H-1,4-benzoxazepine], the IC50 fell in the range of 1000 to 5000 nM.
In the case of `COc1ncccc1CN1CCc2c(Cl)cc(-n3ccc4cc(F)ccc43)cc2C1` [Compound 223] it was above 5000 nM.
In the case of `COc1ncc(CN2CCOc3c(Cl)cc(-n4cc(C)c5cc(F)ccc54)cc3C2)cn1` [Compound 31] it was 500 to 1000 nM; in that of `O=c1ncc(CN2CCOc3c(Cl)cc(-n4ccc5cccnc54)cc3C2)c[nH]1` [Compound 69], above 5000 nM; in that of `Fc1ccc2c(ccn2-c2cc(Cl)c3c(c2)CN(Cc2ccsn2)CCO3)c1` [Compound 97], above 5000 nM.
The same measure for `Fc1ccc2c(ccn2-c2cc(Cl)c3c(c2)CN(Cc2ccnc(C4CNC4)c2)CCO3)c1` [Compound 188, 4-{[2-(azetidin-3-yl)pyridin-4-yl]methyl}-9-chloro-7-(5-fluoroindol-1-yl)-3,5-dihydro-2H-1,4-benzoxazepine; trifluoroacetic acid]: above 5000 nM; for `CN(C)c1ccc2c(ccn2-c2cc(Cl)c3c(c2)CN(Cc2cnc(=O)[nH]c2)CCO3)c1` [Compound 61]: above 5000 nM.
For the compound `C[C@@H]1COc2c(Cl)cc(-n3ccc4cc(F)ccc43)cc2CN1Cc1cc[nH]c(=O)n1` [Compound 12], the half-inhibitory concentration (IC50) fell in the range of 500 to 1000 nM.
In the case of `Oc1ncc(CN2CCOc3c(Cl)cc(-n4ccc5cc(F)ccc54)cc3C2)c(Cl)n1` [Compound 158, 4-chloro-5-{[9-chloro-7-(5-fluoroindol-1-yl)-3,5-dihydro-2H-1,4-benzoxazepin-4-yl]methyl}-3H-pyrimidin-2-one], the IC50 was 1000 to 5000 nM.
In the case of `COc1cc(C(C)N2CCOc3c(Cl)cc(-n4ccc5cc(F)ccc54)cc3C2)ccn1` (racemic) [Compound 217, 9-chloro-7-(5-fluoroindol-1-yl)-4-[1-(2-methoxypyridin-4-yl)ethyl]-3,5-dihydro-2H-1,4-benzoxazepine] it was above 5000 nM; in that of `O=c1ncc(CN2CCOc3c(Cl)cc(N4CCOc5cc(F)ccc54)cc3C2)c[nH]1` [Compound 81], 1000 to 5000 nM; in that of `CN(C)c1ncc(CN2CCOc3c(Cl)cc(-n4ccc5cc(F)ccc54)cc3C2)cn1` [Compound 148], 500 to 1000 nM.
In the case of `N#Cc1ccc2c(ccn2-c2cc(Cl)c3c(c2)CN(Cc2cnc(=O)[nH]c2)CCO3)c1` [Compound 59] it was 1000 to 5000 nM.
In the case of `O=c1ccc(CN2CCOc3c(Cl)cc(-n4ccc5cc(F)ccc54)cc3C2)c[nH]1` [Compound 175] it was 100 to 500 nM; in that of `COc1ncc(CN2CCOc3c(Cl)cc(-n4ccc5cc(F)c(F)cc54)cc3C2)cn1` [Compound 24], 1000 to 5000 nM.
For `Fc1ccc2c(ccn2-c2cc(Cl)c3c(c2)CN(Cc2nnco2)CCO3)c1` [Compound 111, 9-chloro-7-(5-fluoroindol-1-yl)-4-(1,3,4-oxadiazol-2-ylmethyl)-3,5-dihydro-2H-1,4-benzoxazepine], the IC50 lay in the range of 1000 to 5000 nM.
The same measure for `O=c1ncc(CN2CCOc3c(Cl)cc(N4CCc5cc(Cl)ccc54)cc3C2)c[nH]1` [Compound 79]: 100 to 500 nM.
The same measure for `Fc1ccc2c(ccn2-c2cc(Cl)c3c(c2)CN(Cc2cn[nH]c2)CCO3)c1` [Compound 103, 4-((1H-pyrazol-4-yl)methyl)-9-chloro-7-(5-fluoro-1H-indol-1-yl)-2,3,4,5-tetrahydrobenzo[f][1,4]oxazepane]: 1000 to 5000 nM; for `O=c1cc(CN2CCc3c(Cl)cc(-n4ccc5cc(F)ccc54)cc3C2)cc[nH]1` [Compound 240]: above 5000 nM.
The same measure for `Fc1ccc2c(ccn2-c2cc(Cl)c3c(c2)CN(Cc2cc[nH]n2)CCO3)c1` [Compound 101]: above 5000 nM.
With `Fc1ccc2c(ccn2-c2cc(Cl)c3c(c2)CN(Cc2cncnc2)C2(CC2)CO3)c1` [Compound 218], the IC50 is above 5000 nM.
The same measure for `Fc1ccc2c(ccn2-c2cc(Cl)c3c(c2)CN(Cc2ccnc(Cl)c2F)CCO3)c1` [Compound 190]: 1000 to 5000 nM; for `COc1ncc(CN2CCOc3c(Cl)cc(-c4cccc5nccn45)cc3C2)cn1` [Compound 39]: 1000 to 5000 nM.
In the case of `COc1ncc(CN2CCOc3c(Cl)cc(-n4cc(C(F)(F)F)c5ccccc54)cc3C2)cn1` [Compound 17, 9-chloro-4-[(2-methoxypyrimidin-5-yl)methyl]-7-[3-(trifluoromethyl)indol-1-yl]-3,5-dihydro-2H-1,4-benzoxazepine] it was 1000 to 5000 nM; in that of `O=c1ncc(CN2CCOc3c(Cl)cc(-n4ccc5cc(Cl)ncc54)cc3C2)c[nH]1` [Compound 72], above 5000 nM; in that of `Fc1ccc2c(ccn2-c2cc(Cl)c3c(c2)CN(Cc2cnco2)CCO3)c1` [Compound 93, 9-chloro-7-(5-fluoro-1H-indol-1-yl)-4-(oxazol-5-ylmethyl)-2,3,4,5-tetrahydrobenzo[f][1,4]oxazepine], 500 to 1000 nM.
The same measure for `COc1ncc(CN2CCOc3c(Cl)cc(-n4ccc5cc(F)cnc54)cc3C2)cn1` [Compound 33, 9-chloro-7-(5-fluoro-1H-pyrrolo[2,3-b]pyridin-1-yl)-4-((2-methoxypyrimidin-5-yl)methyl)-2,3,4,5-tetrahydrobenzo[f][1,4]oxazepine]: 1000 to 5000 nM; for `O=c1ncc(CN2CCOc3c(Cl)cc(-c4ncc5ccccn45)cc3C2)c[nH]1` [Compound 75]: 500 to 1000 nM; for `COc1ncc(CN2CCOc3c(Cl)cc(-c4ncc5cc(Cl)ccn45)cc3C2)cn1` [Compound 41, 9-chloro-7-{7-chloroimidazo[1,5-a]pyridin-3-yl}-4-[(2-methoxypyrimidin-5-yl)methyl]-3,5-dihydro-2H-1,4-benzoxazepine]: 500 to 1000 nM.
`O=c1ncc(CN2CCOc3c(Cl)cc(-n4ccc5cc(F)ccc54)cc3C2)c(O)[nH]1` [Compound 157, 5-{[9-chloro-7-(5-fluoroindol-1-yl)-3,5-dihydro-2H-1,4-benzoxazepin-4-yl]methyl}-4-hydroxy-3H-pyrimidin-2-one]: the IC50 was 1000 to 5000 nM.
In the case of `Fc1ccc2c(ccn2-c2cc(Cl)c3c(c2)CN(Cc2ccc[nH]2)CCO3)c1` [Compound 87] it was above 5000 nM; in that of `O=c1ncc(CN2CCOc3c(Cl)cc(-n4ccc5ccncc54)cc3C2)c[nH]1` [Compound 71], above 5000 nM.
The same measure for `Oc1ccc(CN2CCOc3c(Cl)cc(-n4ccc5cc(F)ccc54)cc3C2)cc1` [Compound 121]: above 5000 nM.
In the case of `OCc1cc(CN2CCOc3c(Cl)cc(-n4ccc5cc(F)ccc54)cc3C2)ccn1` [Compound 183] it was 100 to 500 nM.
With `COc1cc(CN2CCOc3c(Cl)cc(-n4ccc5cc(F)ccc54)c(C)c3C2)ccn1` [Compound 221], the IC50 was above 5000 nM.
The same measure for `COCC1COc2c(Cl)cc(-n3ccc4cc(F)ccc43)cc2CN1Cc1cc[nH]c(=O)c1` (stereo not drawn) [Compound 239]: 1000 to 5000 nM.
Consider `Fc1ccc2c(ccn2-c2cc(Cl)c3c(c2)CN(Cc2cnsn2)CCO3)c1` [Compound 113], for which the IC50 was in the range of 1000 to 5000 nM.
In the case of `O=c1nccc(CN2CCOc3c(Cl)cc(-n4ccc5cc(F)ccc54)cc3C2)[nH]1` [Compound 164] it was above 5000 nM; in that of `Fc1ccc2c(ccn2-c2cc(Cl)c3c(c2)CN(Cc2nn[nH]n2)CCO3)c1` [Compound 118, 9-chloro-7-(5-fluoroindol-1-yl)-4-(2H-1,2,3,4-tetrazol-5-ylmethyl)-3,5-dihydro-2H-1,4-benzoxazepine], above 5000 nM.
